According to US4657916A, “Quinoline-N-oxide derivative and pharmaceutical composition” (Kyowa Hakko Kogyo Co., Ltd., priority 1984, dated 1987):
Counter-ions that a name gives are not always drawn.

The compounds below were run against T1, 5-lipoxygenase (Rattus norvegicus, UniProt P12527) (assay: Inhibiting action on leukocyte 5-lipoxygenase in vitro (RBL-1 cells as enzyme source, 14C-arachidonic acid)). Conditions: 1 μM compound; RBL-1 rat cells; 37° C., 5 minutes; read-out: 5-lipoxygenase-inhibiting activity: Percent inhibition at 1 μM compound concentration.
T1 construct: (RBL-1, ATCC NO. CRL 1378) cells of rats were used as a 5-lipoxygenase enzyme source; endogenous in cells; host or cells: RBL-1 (rat basophilic leukemia) cells, ATCC CRL 1378
T1 sequence (P12527 1-673): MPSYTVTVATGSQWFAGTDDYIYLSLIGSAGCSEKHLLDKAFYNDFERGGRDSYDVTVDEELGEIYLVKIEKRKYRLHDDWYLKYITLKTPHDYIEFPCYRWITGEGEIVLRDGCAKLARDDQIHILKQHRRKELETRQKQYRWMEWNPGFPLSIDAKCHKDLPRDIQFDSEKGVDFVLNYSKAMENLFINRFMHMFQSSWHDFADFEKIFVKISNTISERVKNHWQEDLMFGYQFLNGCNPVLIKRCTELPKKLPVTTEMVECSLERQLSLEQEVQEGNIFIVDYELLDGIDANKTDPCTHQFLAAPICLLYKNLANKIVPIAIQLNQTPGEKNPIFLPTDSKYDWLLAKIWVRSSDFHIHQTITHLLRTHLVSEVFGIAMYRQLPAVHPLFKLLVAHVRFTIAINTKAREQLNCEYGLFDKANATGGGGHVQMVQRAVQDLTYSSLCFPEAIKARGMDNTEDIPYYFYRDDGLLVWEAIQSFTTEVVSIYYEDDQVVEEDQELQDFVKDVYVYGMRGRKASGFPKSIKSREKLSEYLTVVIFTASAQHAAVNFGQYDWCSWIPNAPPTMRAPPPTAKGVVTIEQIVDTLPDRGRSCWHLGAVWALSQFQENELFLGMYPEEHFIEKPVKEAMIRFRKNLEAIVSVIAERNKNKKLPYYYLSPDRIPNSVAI
Assay type: biochemical, rats
Experimental: Inhibiting actions of test compounds shown in Table 2 on lipoxygenase in vitro were determined according to the following procedure.
Procedure for determining inhibiting actions on leukocyte 5-lipoxygenase:
Determination was conducted according to the modified B. A. Jakschik et al procedure [Biochim. Biophys. Res. Commun. 95, 103 (1980)]. That is, Leukemic basophilic granulocyte (RBL-1, ATCC NO. CRL 1378) cells of rats were used as a 5-lipoxygenase enzyme source, and the cells and a test compound were contacted with each other in a 0.07 M tris hydrochloric acid buffer solution in the presence of 0.7 μm moles of calcium chloride at 37° C. for 5 minutes, and then 20 μmoles of [^14 C]-arachidonic acid was added thereto. The mixture was subjected to reaction at 37° C. for 5 minutes. The reaction product was extracted with ethyl acetate/methanol/0.2 M citric acid (30/4/1) and the extract was subjected to a thin layer chromatographic separation (developing solvent: petroleum ether/ethyl ether/acetic acid=50/50/1), and the spot of […] in the product was scraped off and ^14 C was measured by a liquid scintillation counter.

Row | SMILES | inhibition at 1 µM [%]
1 | [O-][n+]1c(CCCCCCCCCCCO)cc(OCc2ccccc2)c2ccccc21 [1-(2), 4-benzyloxy-2-(11-hydroxyundecyl) quinoline-N-oxide] | 7.7
2 | [O-][n+]1c(CCCO)cc(OCc2ccccc2)c2ccccc21 [Example 2, 4-benzyloxy-2-(3-hydroxypropyl) quinoline-N-oxide] | 2.7
3 | [O-][n+]1c(CCCOC2CCCCO2)cc(O)c2ccccc21 (stereo not shown) [Example 4, 4-hydroxy-2-[3-(2-tetrahydropyranyloxy)propyl] quinoline-N-oxide] | 1.6
4 | [O-][n+]1c(CCCCCCCCCCCOC2CCCCO2)cc(OCc2ccccc2)c2ccccc21 (stereo not shown) [Example 6, 4-benzyloxy-2-[11-(2-tetrahydropyranyloxy)undecyl] quinoline-N-oxide] | 20
5 | O=CCCCCCCCCCCc1cc(OCc2ccccc2)c2ccccc2[n+]1[O-] [Example 7, 4-benzyloxy-2-(10-formyldecyl) quinoline-N-oxide] | 33.1
6 | O=C(O)CCCCCCCCCCc1cc(OCc2ccccc2)c2ccccc2[n+]1[O-] [Example 8, 4-benzyloxy-2-(10-carboxydecyl) quinoline-N-oxide] | 27.3
7 | NCCCCCCCCCCCc1cc(OCc2ccccc2)c2ccccc2[n+]1[O-] [Example 9, 4-benzyloxy-2-(11-aminoundecyl) quinoline-N-oxide] | 27
8 | [O-][n+]1c(CCCCCCCCCCCNCc2ccccc2)cc(OCc2ccccc2)c2ccccc21 [Example 10, 4-benzyloxy-2-[11-(N-benzylaminoundecyl)] quinoline-N-oxide] | 32.4
9 | [O-][n+]1c(CCCCCCCCCCC=NO)cc(OCc2ccccc2)c2ccccc21 [Example 11] | 36.6
10 | COC(CCCCCCCCCCc1cc(OCc2ccccc2)c2ccccc2[n+]1[O-])OC [Example 12, 4-benzyloxy-2-(11,11-dimethoxyundecyl) quinoline-N-oxide] | 37.2
11 | [O-][n+]1c(CCCOC2CCCCO2)cc(OCc2ccccc2)c2ccccc21 (stereo not shown) [Example 13, 4-benzyloxy-2-[3-(2-tetrahydropyranyloxy)propyl]quinoline-Noxide] | 11.5

Same assay, conditions: RBL-1 rat cells; 37° C., 5 minutes

Row | SMILES | IC50 [nM]
12 | [O-][n+]1c(CCCCCCCCCCCO)cc(O)c2ccccc21 [Example 3, 4-hydroxy-2-(11-hydroxyundecyl) quinoline-N-oxide] | 280
13 | [O-][n+]1c(CCCCCCCCCCCO)c(Br)c(O)c2ccccc21 [Example 5, 3-bromo-4-hydroxy-2-(11-hydroxyundecyl) quinoline-N-oxide] | 220
14 | [O-][n+]1c(CCCCCCCCCCCOC2CCCCO2)cc(O)c2ccccc21 (stereo not shown) [Example 14, 4-hydroxy-2-[11-(2-tetrahydropyranyloxy)undecyl] quinoline-N-oxide] | 160
15 | O=C(O)CCCCCCCCCCc1cc(O)c2ccccc2[n+]1[O-] [Example 15, 4-hydroxy-2-(10-carboxydecyl) quinoline-Noxide] | 2700
16 | NCCCCCCCCCCCc1cc(O)c2ccccc2[n+]1[O-] [Example 16, 4-hydroxy-2-(11-aminoundecyl) quinoline-Noxide. hydrochloride] | 250
17 | [O-][n+]1c(CCCCCCCCCCCNCc2ccccc2)cc(O)c2ccccc21 [Example 17, 4-hydroxy-2-[11-(N benzylaminoundecyl)] quinoline-Noxide] | 270
18 | COC(CCCCCCCCCCc1cc(O)c2ccccc2[n+]1[O-])OC [Example 19, 4-hydroxy-2-(11,11-dimethoxyundecyl) quinoline-Noxide] | 180
19 | O=CCCCCCCCCCCc1cc(O)c2ccccc2[n+]1[O-] [Example 20, 4-hydroxy-2-(10-formyldecyl) quinoline-Noxide] | 1700
